From patent publication US20040091517A1, “Use of polyphospate as a tooth erosion inhibitors in acidic compositions” (priority 2000, published 2004)
Values joined by “and” are separate entries in the source; they are usually repeats but may differ in a detail not shown here. Equal entries are not always repeated.

Test: in-vitro planometry/profilometry test of enamel erosion by acidic solutions and beverages
Set-up: species or system human
Method: Test solutions were prepared by dissolving the ingredients in water as described in the Table. For test solutions containing sodium polyphosphate, the average chain length (n) of the polyphosphate polymer used was 17. All solutions were prepared to give a pH of 3.0 and a titratable acidity of 0.5% w/v CAMH (citric acid monohydrate). Where calcium was added, the molar ratio of calcium: citric acid used was about 0.08. The erosive effect of the solutions was evaluated using in-vitro planometry tests in which flat dental enamel sections were exposed to test solutions at a temperature of 37° C. for 4 hours. […] Erosive effect was evaluated by physical measurement of the depth of enamel (in microns) lost during the procedure.
A. Solutions were prepared containing approximately equivalent molar concentrations of phosphate groups dissolved in 0.3% w/v citric acid monohydrate (CAMH), pH 3.4. pH was adjusted by the addition of NaOH as required. […] Additionally sodium polyphosphate n≈4, 7, 28 was from Chemische Fabrik Budenheim, Budenheim, Germany, and sodium polyphosphate n≈12, 21, 25 was from Rhodia Ltd. Widnes, Cheshire, UK. Enamel specimens were placed in the solutions with stirring at 37 C for 4 hours and the amount of enamel lost from the surface during that time measured by profilometry as described previously.
The acidulant employed was 0.3% w/v citric acid monohydrate. Citric acid is one of the most commonly employed food acidulants. Adjustment of pH where required was achieved by the addition of NaOH.

O=C([O-])[O-].[Ca+2] [Ca, calcium carbonate]
4 Hr Enamel Loss (Ca 80 ppm alone, no phosphate salt, no gum, 0.5% w/v CAMH, pH 3.0): 41.1 microns and 80 microns | 4 Hr Enamel Loss (Ca 80 ppm alone, no phosphate salt, 0.3% w/v CAMH, pH 3.4): 42.8 microns | 4 Hr Enamel Loss (Ca 100 ppm alone, no polyphosphate, 0.3% w/v CAMH, pH 3.2): 31.5 microns | 4 Hr Enamel Loss (Ca 200 ppm alone, no polyphosphate, 0.3% w/v CAMH, pH 3.2): 25.2 microns

O=P([O-])([O-])OP(=O)([O-])OP(=O)([O-])[O-].[Na+].[Na+].[Na+].[Na+].[Na+] [Penta-sodium triphosphate]
4 Hr Enamel Loss (phosphate salt 0.61 g/L, Ca 80 ppm, 0.5% w/v CAMH, pH 3.0, listed as Penta sodium triphosphate, triphosphate): 20.09 microns | 4 Hr Enamel Loss (phosphate salt 0.61 g/L, Ca 80 ppm, 0.5% w/v CAMH, pH 3.0, listed as sodium tri-phosphate, triphosphate): about 20 microns | 4 Hr Enamel Loss (phosphate salt 0.61 g/L, Ca 80 ppm, 0.5% w/v CAMH, pH 3.0, triphosphate): 20.1 microns | 4 Hr Enamel Loss (phosphate salt 0.61 g/L, no Ca, 0.3% w/v CAMH, pH 3.4): 29.6 microns

O=P(O)(O)O [Sodium phosphate]
4 Hr Enamel Loss (phosphate salt 0.65 g/L, Ca 80 ppm, 0.5% w/v CAMH, pH 3.0): 33.4 microns and 33.39 microns | 4 Hr Enamel Loss (phosphate salt 0.65 g/L, Ca 80 ppm, 0.5% w/v CAMH, pH 3.0, listed as sodium phosphate): about 33 microns | 4 Hr Enamel Loss (phosphate salt 0.65 g/L, no Ca, 0.3% w/v CAMH, pH 3.4): 34.05 microns

O=P([O-])([O-])OP(=O)([O-])[O-].[Na+].[Na+].[Na+].[Na+] [Tetra-sodium pyrophosphate]
4 Hr Enamel Loss (phosphate salt 1.08 g/L, Ca 80 ppm, 0.5% w/v CAMH, pH 3.0): 28.6 microns | 4 Hr Enamel Loss (phosphate salt 1.08 g/L, Ca 80 ppm, 0.5% w/v CAMH, pH 3.0, listed as Tetra sodium pyrophosphate): 28.63 microns | 4 Hr Enamel Loss (phosphate salt 1.08 g/L, Ca 80 ppm, 0.5% w/v CAMH, pH 3.0, listed as sodium pyrophosphate): about 29 microns | 4 Hr Enamel Loss (phosphate salt 1.08 g/L, no Ca, 0.3% w/v CAMH, pH 3.4): 34.9 microns
